Source: US20160228452A1, “TREATMENT OF METABOLIC DISEASES BY INHIBTION OF HTR2A OR HTR3” (Korea Advanced Institute of Science and Technology, priority 2014, published 2016)
“Also recorded” adds a separate entry of the source.

Legend:
[1] = High-fat-diet-induced obesity in mice: growth curves, body weight and eWAT mass; assay type: in vivo; settings: PCPA 300 mg/kg daily i.p., 10 weeks, HFD-fed mice vs HFD-fed control
Source text: The generation of Tph^flox/flox mice, Adipoq-cre mice, and aP2-CreERT2 mice has previously been reported^17,30,31. C57BL/6J mice, Htr3a-targeted KO mice (B6.129X1-Htr3a^tm1jul/J, Htr3a KO) and leptin-deficient ob/ob mice (B6.V-Lep^ob/J) were purchased from the Jackson Laboratory (Bar Harbor, Me., USA). To create the adipose tissue-specific Tph1 KO mice, Tph1^flox/flox mice were crossed with Adipoq-Cre mice (Tph1 FKO mice) and aP2-CreERT2 mice (Tph1 AFKO mice). The mice were housed in climate-controlled, specific pathogen-free (SPF) barrier facilities under a 12-h light-dark cycle, and chow and water were provided ad libitum. The Institutional Animal Care and Use Committee at the Korea Advanced Institute of Science and Technology approved the experimental protocols for this study. Htr3a KO mice and Tph1^flox/flox mice were backcrossed with C57BL/6J mice for more than 10 generations. Cre-recombination of 6-week-old Tph1 AFKO mice was induced by intraperitoneal (IP) injection of 5 doses of 2 mg of tamoxifen (Sigma) for 1 week. We fed male mice (aged 8˜10 weeks) either on SCD (standard chow diet; 12% fat calories, Purina Laboratory Rodent Diets 38057) or HFD (60% fat calories, Research Diets D12492). PBS or 300 mg/kg PCPA was administered as a daily intraperitoneal injection. LP-533401 was dissolved in PEG-400 and 5% dextrose (40:60 ratio). Vehicle or 30 mg/kg LP-533401 was administered daily with a feeding needle. We randomly divided C57BL/6J mice into 2-4 groups. For transgenic mice, we compared data between KO mice and their WT littermates. No blinding was done.

[2] = Glucose tolerance test and insulin tolerance test; assay type: in vivo, mice; settings: PCPA-treated HFD-fed mice vs HFD-fed control
Method: For the glucose tolerance tests, the mice were administered 2 g/kg D-glucose in PBS after overnight fasting. For the insulin tolerance tests, the mice were intraperitoneally injected with insulin (0.75 U/kg) after being fasted for 4 h. The blood glucose levels in blood samples obtained from tail veins 0, 15, 30, 45, 60, 90 and 120 min after injection were measured using a Gluco DR Plus glucometer (Allmedicus).

[3] = Blood chemistry analysis (serum cholesterol, LDL cholesterol, FFA, leptin by ELISA); assay type: in vivo; settings: PCPA 300 mg/kg, 6 weeks, HFD-fed mice vs HFD-fed control
Method: Tissue serotonin was extracted by homogenization in extraction buffer containing 0.02% ascorbic acid in 0.1 M perchloric acid followed by centrifugation. The serotonin levels in the supernatants were measured via the liquid chromatography-mass spectrometry method. Serum leptin (Enzo Life Science, Farmingdale, N.Y., USA), LDL-cholesterol (Waco), and FFA (Biovision, Mountain View, Calif., USA) were measured using enzyme-linked immunosorbent assay (ELISA) kits.

[4] = Metabolic analysis by indirect calorimetry (Oxymax/CLAMS); assay type: in vivo, mice
Method: (§1) To measure the metabolic rate, the mice were housed individually in an eight-chamber, open-circuit Oxymax/CLAMS (Columbus Instruments Comprehensive Lab Animal Monitoring System) system as previously described^33. Each mouse was assessed for 72 h in the fed state to determine their metabolic rates. PET imaging was performed using a microPET R4 scanner (Concorde Microsystems, Siemens) as previously described^34.

eWAT, iWAT and BAT = experiment: Histological analysis of adipose tissues (H&E, Ucp1/Plin1 immunohistochemistry, TEM); assay type: in vivo, mice
Method: Inguinal, epididymal and interscapular adipose tissues were harvested, fixed in 4% (w/v) paraformaldehyde in PBS and embedded in paraffin. Then, 5-μm-thick tissue sections were deparaffinized, rehydrated and used for hematoxylin and eosin (H&E) staining, immunohistochemistry and immunofluorescence. For antigen retrieval, the slides were submerged in 10 mM sodium citrate (pH 6.0) and heated to 95° C. for 20 minutes. Visualization of Ucp1 and Plin1 was performed using a VECTASTAIN ABC Kit (PK-4001, Vector Laboratories, Burlingame, Calif., USA) according to the manufacturer's instructions. Briefly, the slides were incubated with BLOXALL Blocking solution (SP-6000, Vector Laboratories) followed by incubation with 2% normal goat serum for 30 min at room temperature to block non-specific binding. Sections were incubated with primary antibody against Ucp1 (ab10983, Abcam) or Plin1 (ab3526, Abcam) for 1 h at room temperature followed by 30-min incubation with a species-specific, biotinylated secondary antibody. The slides were incubated with Vectastain ABC-AP reagent for 30 min and then incubated with […] substrate (DAB, SK-4100, Vector Laboratories) for visualization. The stains and antibodies used for the immunofluorescence staining included BODIPY (BODIPY®493/503, Invitrogen), anti-5HT (ab10385, Abcam) and DAPI (D9542, Sigma). Electron microscopy images of BAT were obtained by transmission electron microscopy (Tecnai Spirit TEM) as previously described^35. Briefly, the BAT was first fixed with 2.5% glutaraldehyde, and after fixation, ultra-thin sections were cut, stained with uranyl acetate and lead citrate and then examined under an electron microscope.

[5] = system: genes involved in lipid metabolism and thermogenesis; experiment: Real-time RT-PCR of mouse adipose tissues; assay type: in vivo, mice
Method: Total RNA was extracted from the mouse tissues or cell lines using TRIzol reagent (Invitrogen) according to the manufacturer's protocol. After TURBO DNase (Invitrogen) treatment, 2 μg of total RNA was used to generate complementary DNA with Superscript III reverse transcriptase (Invitrogen). To analyze gene expression, real-time PCR was performed with a ViiA 7 Real-Time PCR system (Applied Biosystems) and the Power SYBR Green PCR master mix (Applied Biosystems). Relative quantification was based on the ddCt method, and ActB was used as an endogenous control (internal control).

BAT = experiment: 18F-FDG PET/CT glucose utilization of BAT; assay type: in vivo; settings: PCPA-treated HFD-fed mice vs HFD-fed control
Method: as §1

[6] = intraventricular injection, reference 19; cited from earlier work
[7] = PCPA-treated vs control mice, HFD for 6 weeks

N[C@@H](Cc1ccc(Cl)cc1)C(=O)O (racemic) [PCPA, p-chlorophenylalanine]
body weight gain [1]: decreased weight gain; also recorded: reduction in body weight gain
eWAT mass [1]: reduced eWAT mass; also recorded: decreased eWAT
glucose tolerance ([2]; 2 g/kg glucose after overnight fasting): improved glucose tolerance
insulin sensitivity / insulin resistance ([2]; insulin 0.75 U/kg after 4 h fasting): improved; also recorded: reduced insulin resistance
blood level of LDL cholesterol [3]: decreased
blood level of free fatty acid (FFA) [3]: decreased; also recorded: reduced
blood level of leptin [3]: decreased; also recorded: reduced
serum cholesterol [3]: reduced
metabolic rates (metabolic cage data) on standard chow diet ([4]; PCPA 300 mg/kg for 6 weeks vs vehicle, SCD-fed mice): did not affect the metabolic rates; also recorded: no significant differences
O2 consumption [4, 7]: increased
carbon dioxide production (VCO2) [4, 7]: increased carbon dioxide production
energy expenditure [4, 7]: increased energy expenditure
heat production [4, 7]: increased
iWAT adipocyte size, HFD vs SCD within PCPA-treated mice (eWAT, iWAT and BAT; 18-week-old PCPA-treated mice, HFD for 10 weeks compared with PCPA-treated mice fed an SCD): decreased adipocyte size
number and size of mitochondria in BAT (TEM) (eWAT, iWAT and BAT; HFD-fed mice with PCPA treatment for 6 weeks): increased size and number of mitochondria
eWAT cellular structure / cell damage (Plin1 staining) (eWAT, iWAT and BAT; PCPA 300 mg/kg for 6 weeks, SCD or HFD): normal cellular structures; also recorded: No gross cell damage was observed
browning of iWAT (Ucp1-expressing multilocular cells) (eWAT, iWAT and BAT; PCPA-treated mice): brown adipocyte-like multilocular cells that expressed Ucp1 were observed
density of the cristae in BAT mitochondria (eWAT, iWAT and BAT; PCPA-treated mice): increased
iWAT adipocyte size (eWAT, iWAT and BAT; PCPA-treated mice): decreased
multilocular adipocytes in BAT (eWAT, iWAT and BAT; PCPA-treated mice, HFD): increased multilocular adipocytes
BAT lipid droplet size (eWAT, iWAT and BAT; PCPA-treated vs control BAT, regardless of diet): decreased lipid droplet sizes
eWAT adipocyte size (eWAT, iWAT and BAT; PCPA-treated vs control mice, SCD or HFD): decreased adipocyte size; also recorded: did not increase the adipocyte size
Dio2 mRNA level in BAT ([5]; PCPA 300 mg/kg, 6 weeks): highest increase
thermogenic gene expression in BAT ([5]; PCPA 300 mg/kg, 6 weeks): increased thermogenic gene expression
Dio2 mRNA level in iWAT ([5]; PCPA-treated mice fed an HFD): increased
Ucp1 mRNA level in iWAT ([5]; PCPA-treated mice fed an HFD): increased
expression of lipogenic (triglyceride storage) genes in eWAT ([5]; PCPA-treated vs control mice, both SCD and HFD): suppressed expression
glucose (18F-FDG) uptake into BAT (BAT): significantly increased glucose uptake
appetite [6]: reduce appetite
body weight [6]: increase body weight
